Experimental findings from patent US11166924B2, “N-methyl-d-aspartate receptor allosteric modulators and methods for their use” (Qingdao Primedicine Pharmaceutical Company, Ltd., priority 2016, dated 2021) are described below.

In this assay the test system is CREB phosphorylation (pCREB) on Serine 133. The assay can be described thus: pCREB levels in hippocampal slices. The settings on record: 10 μM; 30 min exposure; FIG. 21. More on the design: species or system rat. The protocol: Male Sprague Dawley rats 4-8 weeks old (125-200 gm) were decapitated, and their brains were dissected rapidly and placed into ice-cold chopping saline [containing (in mM): 110 sucrose, 60 NaCl, 3 KCl, 1.25 NaH2PO4, 28 NaHCO3, 5 D-glucose, 0.5 CaCl2, 7 MgCl2, and 0.6 ascorbate, saturated with 95% O2/5% CO2]. Then 400 μm transverse slices were prepared with a Vibratome Series 1000 (Pelco, Ted Pella, Redding, Calif.). Slices were transferred immediately into a 1:1 mix of chopping saline and normal ACSF [containing (in mM): 125 NaCl, 2.5 KCl, 1.25 NaH2PO4, 25 NaHCO3, 10 D-glucose, 2 CaCl2, and 1 MgCl2, saturated with 95% O2/5% CO2] and maintained at room temperature for at least 90 min. Then the slices were transferred to ACSF at 32° C. in a submersion chamber for 45-60 min before pharmacological stimulation.
Brain tissues or cultured cells were lysed on ice in the lysis buffer and then the solution was centrifuged at 14,000 rpm for 10 min at 4° C. Next, the supernatant was collected and protein concentrations were determined using a BCA protein assay kit (Thermo Scientific, 23227). […] The band density of each protein was quantified by the Bio-Rad Quantity One software and the relative optical density was analyzed relative to loading total-CREB on the same membrane. […]

SMILES strings stand for the structures.

With `CCOc1cc(Cl)c(Cl)c(/C=N/NC(=O)c2ccccc2Br)c1O` [Npam43, (E)-2-bromo-N′-(2,3-dichloro-5-ethoxy-6-hydroxybenzylidene)benzohydrazide], the “pCREB levels in hippocampal slices” value was “significantly enhanced pCREB levels”.
